Test systems include SNB-75; NCI-H522; MOLT-4; SK-MEL-5; MDA-N; HT-29; COLO 205; HCT-15; NCI-H226; TK-10; SF-539; M14; 786-0; MCF7; OVCAR-4; SF-295; KM12; UACC-257; DU-145; HL-60.
What all share (assay): NCI-60 cell line screen, 48 h

Each structure is given as a SMILES string.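 Five concentrations, 48 hours, 96-well plates. Abbreviation: GI50, concentration required for 50% inhibition of growth.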 Activity calls are given as the source filed them. No stated cut-off is given here; in the data, active = GI50 up to about 1.1 µM and inactive = higher.

Consider `Fc1nc(-c2c3ccccc3c3sc4ccccc4n23)nc(N2CCOCCOCCOCCOCC2)n1`, for which the GI50 with SNB-75 was 2.56 µM (inactive); with NCI-H522, > 100 µM (inactive); in the assay on MOLT-4, 66.4 µM (inactive); in the assay with SK-MEL-5, > 100 µM (inactive); in the assay on MDA-N, > 100 µM (inactive); with HT-29, 46.6 µM (inactive). For the same compound, the GI50 with COLO 205 was > 100 µM (inactive); in the assay with HCT-15 it was over 100 µM; in the assay on NCI-H226, > 100 µM (inactive); in the assay on TK-10 it was 54.2 µM (inactive); with SF-539 it was 21.6 µM (inactive); with M14, > 100 µM (inactive). For the same compound, the GI50 is 32.8 µM (inactive) with 786-0; > 100 µM (inactive) in the assay on MCF7; > 100 µM (inactive) with OVCAR-4; 63 µM (inactive) in the assay with SF-295; > 100 µM (inactive) in the assay on KM12; > 100 µM (inactive) in the assay on UACC-257. Moreover, in the assay on DU-145, the GI50 was > 100 µM (inactive).

Regarding `c1csc(-c2cscc2-c2cccs2)c1`, the GI50 in the assay with SNB-75 is 69.2 µM (inactive); in the assay with MOLT-4, 34.5 µM (inactive); in the assay with SK-MEL-5, 46.8 µM (inactive); in the assay on HT-29, 91.4 µM (inactive); in the assay with COLO 205, 50.8 µM (inactive); in the assay on HL-60, 30.3 µM (inactive). The GI50 was 35.8 µM in the assay with HCT-15; 27.1 µM (inactive) with NCI-H226; 91 µM (inactive) in the assay on TK-10; 20.3 µM (inactive) in the assay with SF-539; 27.7 µM (inactive) in the assay on M14; 43.6 µM (inactive) with 786-0. Besides, the GI50 with MCF7 is 20.2 µM (inactive); in the assay with OVCAR-4 it was 46 µM (inactive); with SF-295, 32.9 µM (inactive); with KM12, 22.3 µM (inactive); in the assay with UACC-257 it was 95.1 µM (inactive); in the assay with DU-145 it was 1.31 µM (inactive).

As to `CC(=O)OC1=C(CC(C)(C)C)C(=O)c2ccccc2C1=O`, the GI50 is 27.4 µM (inactive) with SNB-75; 15.9 µM (inactive) in the assay on SK-MEL-5; 33.7 µM (inactive) in the assay on HT-29; 23.6 µM (inactive) in the assay on COLO 205; 16 µM (inactive) with HL-60; 31.8 µM in the assay with HCT-15. Further, the GI50 with NCI-H226 was 19.8 µM (inactive); with TK-10 it was 68.9 µM (inactive); in the assay with SF-539, 26.5 µM (inactive); with M14, 30.4 µM (inactive); in the assay with 786-0, 39.6 µM (inactive); in the assay on MCF7, 39.5 µM (inactive). Moreover, the GI50 with OVCAR-4 is 37.8 µM (inactive); in the assay on SF-295, 22.7 µM (inactive); in the assay with KM12 it was 32.2 µM (inactive); in the assay on UACC-257, 38.5 µM (inactive); in the assay with DU-145, 46.7 µM (inactive).

Turning to `[O-][n+]1c2ccccc2[n+]([O-])c2ccccc21`, the GI50 is > 100 µM (inactive) with SNB-75; > 100 µM (inactive) in the assay on NCI-H522; 2.74 µM (inactive) with MOLT-4; 37.5 µM (inactive) with SK-MEL-5; 86.3 µM (inactive) in the assay on HT-29; 15.6 µM (inactive) in the assay on COLO 205. For the same compound, the GI50 in the assay with HL-60 was 11.5 µM (inactive); with HCT-15, 68.2 µM; with NCI-H226, > 100 µM (inactive); in the assay with TK-10 it was > 100 µM (inactive); in the assay with SF-539 it was > 100 µM (inactive); in the assay with M14, 33.1 µM (inactive). The GI50 in the assay on 786-0 was > 100 µM (inactive); in the assay with MCF7, 48.1 µM (inactive); in the assay on OVCAR-4, > 100 µM (inactive); in the assay with SF-295, > 100 µM (inactive); in the assay on UACC-257, > 100 µM (inactive); with DU-145, 45.4 µM (inactive).

Turning to `COc1ccc2nc3ccc(OC)cc3c([S+]([O-])Cc3ccccc3)c2c1` (stereo not given), the GI50 is 15.5 µM (inactive) in the assay with SNB-75; 1.65 µM (inactive) with NCI-H522; 2.79 µM (inactive) with MOLT-4; 16.8 µM (inactive) in the assay with SK-MEL-5; 3.05 µM (inactive) in the assay on HT-29; 7.26 µM (inactive) in the assay on COLO 205. Also, the GI50 is 3.84 µM (inactive) in the assay with HL-60; 6.61 µM with HCT-15; 19.4 µM (inactive) in the assay with NCI-H226; 7.71 µM (inactive) in the assay with TK-10; 7.73 µM (inactive) in the assay on SF-539; 14.4 µM (inactive) in the assay on M14. Also, the GI50 was 2.21 µM (inactive) in the assay on 786-0; 2.3 µM (inactive) in the assay on MCF7; 14.9 µM (inactive) with OVCAR-4; 17.8 µM (inactive) in the assay on SF-295; 17.8 µM (inactive) with KM12; 7.8 µM (inactive) in the assay on UACC-257. Further, in the assay on DU-145, the GI50 was 2.07 µM (inactive).

On to `CCOC(=O)C1C(c2ccc3c(c2)OCO3)c2c(n[nH]c2O)CC1(O)OCC` (stereo not given), for which the GI50 in the assay on SNB-75, in the assay on NCI-H522, in the assay with MOLT-4, in the assay on SK-MEL-5, in the assay on HT-29 and in the assay on COLO 205 was > 100 µM (inactive) throughout. In addition, the GI50 in the assay on HL-60 was > 100 µM (inactive); with HCT-15, over 100 µM; in the assay with TK-10, > 100 µM (inactive); with SF-539, > 100 µM (inactive); in the assay with M14 it was > 100 µM (inactive); with 786-0, > 100 µM (inactive). In addition, the GI50 with MCF7, with OVCAR-4, in the assay on SF-295, in the assay with KM12, in the assay on UACC-257 and in the assay with DU-145 was > 100 µM (inactive) in each case.

In the case of `CC(=O)Nc1c(C(=N)C#N)ncn1CCO`, the GI50 with SNB-75, with NCI-H522, in the assay on SK-MEL-5, in the assay on MDA-N, in the assay with HT-29 and with COLO 205 was > 100 µM (inactive) throughout. Besides, the GI50 is over 100 µM in the assay with HCT-15; > 100 µM (inactive) with NCI-H226; > 100 µM (inactive) with TK-10; > 100 µM (inactive) in the assay on SF-539; > 100 µM (inactive) in the assay on M14; > 100 µM (inactive) in the assay on 786-0. In addition, the GI50 in the assay with MCF7, in the assay on OVCAR-4, in the assay on SF-295, in the assay with KM12, in the assay on UACC-257 and with DU-145 was > 100 µM (inactive) throughout.

For `Cc1ncc(CSC(=N)N)n1Cc1ccccc1`, the GI50 in the assay with NCI-H522 is 24.7 µM (inactive); with SK-MEL-5, 82.6 µM (inactive); in the assay on MDA-N, 38.2 µM (inactive); with HT-29, 55.8 µM (inactive); in the assay on COLO 205, 33.1 µM (inactive); in the assay on HCT-15, over 100 µM. The GI50 in the assay with NCI-H226 is > 100 µM (inactive); with TK-10, 25.8 µM (inactive); in the assay with SF-539, 43.6 µM (inactive); in the assay on M14, 48.1 µM (inactive); in the assay with 786-0 it was 46 µM (inactive); with MCF7, 39.5 µM (inactive). Also, the GI50 in the assay on OVCAR-4 is 83 µM (inactive); in the assay with SF-295, 63.7 µM (inactive); with KM12, > 100 µM (inactive); in the assay on UACC-257, 29.7 µM (inactive); in the assay on DU-145, 22.5 µM (inactive).

`Nc1ncnc2c1ncn2[C@@H]1C[C@@H]1CO`: the GI50 in the assay on NCI-H522 is > 100 µM (inactive); in the assay on MOLT-4 it was > 100 µM (inactive); in the assay with MDA-N it was > 100 µM (inactive); with HT-29, > 100 µM (inactive); in the assay with HL-60, > 100 µM (inactive); in the assay with HCT-15, over 100 µM. The GI50 in the assay on NCI-H226, in the assay with SF-539, in the assay on 786-0, in the assay on MCF7, in the assay on SF-295 and in the assay with KM12 was > 100 µM (inactive) throughout. In addition, the GI50 with UACC-257 was > 100 µM (inactive).

With `O[C@H]1[C@H](O)[C@H](O)CN2CCC[C@@H](O)[C@H]12`, the GI50 in the assay with SNB-75 was 81.1 µM (inactive); with NCI-H522, > 100 µM (inactive); with MOLT-4, > 100 µM (inactive); with SK-MEL-5, > 100 µM (inactive); in the assay on HT-29, > 100 µM (inactive); in the assay with COLO 205, > 100 µM (inactive). The GI50 in the assay on HL-60 was > 100 µM (inactive); in the assay with HCT-15, over 100 µM; in the assay with NCI-H226, > 100 µM (inactive); in the assay with TK-10, > 100 µM (inactive); in the assay on SF-539 it was > 100 µM (inactive); with M14, > 100 µM (inactive). Also, the GI50 in the assay with 786-0, in the assay with MCF7, in the assay on OVCAR-4, in the assay with SF-295, with KM12 and in the assay on UACC-257 was > 100 µM (inactive) each time. In addition, the GI50 with DU-145 is > 100 µM (inactive).

In the case of `c1cncc(C2c3[nH]c4ccccc4c3CCN2CCCN2CCCCC2)c1` (stereo not given), the GI50 in the assay with SNB-75 was > 100 µM (inactive); in the assay with NCI-H522, > 100 µM (inactive); in the assay with MOLT-4, > 100 µM (inactive); with SK-MEL-5 it was 37.2 µM (inactive); in the assay with HT-29, > 100 µM (inactive); in the assay on COLO 205, 84.3 µM (inactive). Besides, the GI50 is > 100 µM (inactive) in the assay on HL-60; over 100 µM in the assay on HCT-15; > 100 µM (inactive) in the assay with NCI-H226; > 100 µM (inactive) in the assay with TK-10; > 100 µM (inactive) with SF-539; 18.6 µM (inactive) in the assay with M14. The GI50 in the assay with 786-0 was > 100 µM (inactive); in the assay on OVCAR-4, > 100 µM (inactive); in the assay on SF-295, > 100 µM (inactive); in the assay with KM12 it was > 100 µM (inactive); in the assay with UACC-257 it was 60.7 µM (inactive).

For the compound `CCOC(=O)c1nnsc1NC(=O)Nc1ccc(Cc2ccc(NC(=O)Nc3snnc3C(=O)OCC)cc2)cc1`, the GI50 is 88.5 µM (inactive) with SNB-75; > 100 µM (inactive) in the assay with MOLT-4; 29.6 µM (inactive) in the assay on SK-MEL-5; 69.3 µM (inactive) with MDA-N; 61 µM (inactive) in the assay with HT-29; > 100 µM (inactive) in the assay on COLO 205. In addition, the GI50 in the assay on HCT-15 is over 100 µM; with NCI-H226, 31.9 µM (inactive); with TK-10, > 100 µM (inactive); with M14, > 100 µM (inactive); in the assay on 786-0 it was 18.2 µM (inactive); in the assay on MCF7, 71.8 µM (inactive). The GI50 in the assay with OVCAR-4 was 35.6 µM (inactive); in the assay with SF-295, 70 µM (inactive); with KM12, 55.1 µM (inactive); in the assay on UACC-257, > 100 µM (inactive); with DU-145, 32.8 µM (inactive).
